Data set [1] deals with (+)-MK801 binding site of the ionotropic NMDA receptor. As to the kind of experiment: (3H)-(+)-MK801 receptor bonding test on rat cerebral membrane homogenates. The conditions noted are these: 1 nmol/l (3H)-(+)-MK801, rat brain membrane homogenate; for Percentage inhibition of (3H)-(+)-MK801 binding at 10 μM: 10 μmol/l compound, triple determinations; for Ki: calculated from IC50 by Cheng-Prusoff equation. As for the experimental part:
Research to determine the NMDA antagonistic effect of each compound in general formula I was carried out on cerebral membrane homogenates (homogenate of rat brain without cerebellum, pons and medulla oblongata taken from male Wistar rats (Charles River, Sulzfeld, Germany)).
For this purpose, after separating the cerebellum, pons and medulla oblongata, freshly prepared rat brains were macerated in 50 mmol/l of tris/HCl (pH 7.7) with a Polytron homogeniser (model PT3000, Kinematika AG, Littau, Switzerland) at 6000 revolutions per minute (rpm) for 1 minute with ice cooling and centrifuged for 15 minutes at 4° C. and 60,000 g. After decanting and discarding the supernatant, again placing in 50 mmol/l of tris/HCl (pH 7.7) and macerating the membrane pellet with a homogeniser at 2000 rpm for 1 minute, it was centrifuged again for 15 minutes at 4° C. and 60,000 g. The supernatant was again discarding and the membrane pellet homogenised (2000 rpm for 1 minute) in 50 mmol/l of tris/HCl (pH 7.7) and frozen in aliquots at −70° C.
For the receptor bonding test, each aliquot was defrosted and then centrifuged for 15 minutes at 4° C. and 60,000 g. After decanting and discarding the supernatant, the membrane pellet was taken up with bonding test buffer and homogenised (2000 rpm for 1 minute). The bonding test buffer was 5 mmol/l tris/HCl (pH 7.7) supplemented with 30 μmol/l of glycine and 100 μmol/l of glutamic acid.
1 nmol/l of (^3H)-(+)-MK801 ((5R, 10S)-(+)-5-methyl-10,11-dihydro-5H-dibenzo(a,d)cycloheptane-5,10-imine was used as a radioactively marked ligand (NET-972, NEN, Cologne Germany). The proportion of unspecific bonding was determined in the presence of 10 μmol/l of non-radioactively marked (+)-MK801 (RBI/Sigma, Deisenhofen, Germany). In further batches, each of the compounds of general formula I were added in series of concentrations and the displacement of the radioactive ligand out of its specific bond to the NMDA receptor determined. All the batches were subjected to triple determinations. The batches were each incubated for 40 minutes at 25° C. in a water bath and then harvested for determination of the radioactive ligand bound to the cerebral membrane homogenate by means of filtration through glass-fibre filters (GF/B) (Whatman GF/B, Hassel, Munich, Germany). The radioactivity retained by the glass-fibre filter discs was measured in a β counter (Packard TRI-CARB Liquid Scintillation Analyser 2000CA, Packard Instrument, Meriden, Conn. 06450, USA) after adding a scintillator (“Ready Protein” scintillator, Beckmann Coulter GmhH, Krefeld, Germany).
The percentage inhibition of the specific bonding of the ligand (^3H)-(+)-MK801 in the presence of 10 μmol/l of each compound of general formula I resulting from the triple batches is used as a measure of the affinity of the compound for the (+)-MK801 binding site of the ionotropic NMDA receptor. From batches with concentration series of these compounds of general formula I, the IC50 values (concentration of substituted compounds with 50% displacement of radioactive ligand out of its specific bond) were calculated in accordance with the law of mass action using non-linear regression. From these IC50 values, the Kj values were calculated in accordance with the Cheng-Prusoff equation (Y. Cheng, W. H. Prusoff, 1973, Biochem. Pharmacol., 22, pp 3099-3108).

As to `CN(C)C(c1ccccc1)C1CCCCC1(O)CCc1ccccc1.Cl` (centres unmarked) [Example 1, 2-(dimethylaminophenylmethyl)-1-phenethylcyclohexanol, hydrochloride], the melting point (as a rule, the temperature, or range, at which the solid turns liquid) was 100 °C. In data set [1], the “Percentage inhibition of (3H)-(+)-MK801 binding at 10 μM” value (“Percentage inhibition” for short) amounted to 56% and the Ki (usually the equilibrium dissociation constant of an inhibitor or competing ligand from its target) is 3800 nM.
For `CN(C)C(c1ccccc1Cl)C1CCCCC1(O)CCc1ccccc1.Cl` (centres unmarked) [Example 2, 2-[(2-chlorophenyl)dimethylaminomethyl]-1-phenethylcyclohexanol, hydrochloride], in that order: 110 °C, 95% and 1700 nM.
Compound `CN(C)C(c1ccccc1Br)C1CCCCC1(O)CCc1ccccc1.Cl` (centres unmarked) [Example 3, 2-[(2-bromophenyl)dimethylaminomethyl]-1-phenethylcyclohexanol, hydrochloride] showed a melting point of 162 to 165 °C. Also, in data set [1], the “Percentage inhibition” value is 91% and the Ki was 1700 nM.
`COc1cccc(C(C2CCCCC2(O)CCc2ccccc2)N(C)C)c1.Cl` (centres unmarked) [Example 4, 2-[dimethylamino-(3-methoxyphenyl)methyl]-1-phenethylcyclohexanol, hydrochloride] had a melting point of 90 °C. Also, in data set [1], the “Percentage inhibition” value came out at 51% and the Ki was 6200 nM.
For `Cc1ccccc1C(C1CCCCC1(O)CCc1ccccc1)N(C)C.Cl` (centres unmarked) [Example 5, 2-(dimethylamino-o-tolylmethyl)-1-phenethylcyclohexanol, hydrochloride], in that order: 187 to 188 °C, 93% and 1300 nM.
For `CN(C)C(c1ccccc1)C1CCCCC1(O)CCCc1ccccc1.Cl` (centres unmarked) [Example 6, 2-(dimethylaminophenylmethyl)-1-(3-phenylpropyl)cyclohexanol, hydrochloride], in that order: 90 °C, 74% and 2600 nM.
For `CN(C)C(c1ccccc1)C1CCCCC1(O)CCc1ccccc1F.Cl` (centres unmarked) [Example 7, 2-(dimethylaminophenylmethyl)-1-[2-(2-fluorophenyl)ethyl]cyclohexanol, hydrochloride], in that order: 95 °C, 91% and 1100 nM.
The compound `CN(C)C(c1ccccc1F)C1CCCCC1(O)CCc1ccccc1.Cl` (centres unmarked) [Example 8, 2-[dimethylamino-(2-fluorophenyl)methyl]-1-phenethylcyclohexanol, hydrochloride] displayed a melting point of 172 to 174 °C. Also, in data set [1], the “Percentage inhibition” value is given as 91% and the Ki was 1600 nM.
For `CN(C)C(c1ccccc1Cl)C1CCCCC1(O)CCc1ccc(F)cc1.Cl` (centres unmarked) [Example 9, 2-[(2-chlorophenyl)dimethylaminomethyl]-1-[2-(4-fluorophenyl)ethyl]cyclohexanol, hydrochloride], in that order: 170 °C, 67% and 3800 nM.
For `CN(C)C(c1ccccc1Cl)C1CCCCC1(O)CCc1ccccc1F.Cl` (centres unmarked) [Example 10, 2-[(2-chlorophenyl)dimethylaminomethyl]-1-[2-(2-fluorophenyl)ethyl]cyclohexanol, hydrochloride], in that order: 162 to 163 °C, 102% and 400 nM.
As for `Cc1ccccc1CCC1(O)CCCCC1C(c1ccccc1Cl)N(C)C.Cl` (centres unmarked) [Example 35, 2-[(2-chlorophenyl)dimethylaminomethyl]-1-(2-o-tolylethyl)cyclohexanol, hydrochloride], in data set [1], the “Percentage inhibition” value came out at 93% and the Ki is 1800 nM.
For `CN(C)C(c1ccccc1Cl)C1CCCCC1(O)CCCc1ccccc1.Cl` (centres unmarked) [Example 36, 2-[(2-chlorophenyl)dimethylaminomethyl]-1-(3-phenylpropyl)cyclohexanol, hydrochloride], in that order: 85% and 1900 nM.
For `Cc1ccccc1CCC1(O)CCCCC1C(c1ccccc1)N(C)C.Cl` (centres unmarked) [Example 37, 2-(dimethylaminophenylmethyl)-1-(2-o-tolylethyl)cyclohexanol, hydrochloride], in that order: 77% and 1800 nM.
For the compound `Cc1ccccc1CCC1(O)CCCCC1C(c1ccccc1Br)N(C)C.Cl` (centres unmarked) [Example 38, 2-[(2-bromophenyl)dimethylaminomethyl]-1-(2-o-tolylethyl)cyclohexanol, hydrochloride], in data set [1], the “Percentage inhibition” value turned out to be 93% and the Ki was 2300 nM.
For `Cc1ccccc1CCC1(O)CCCCC1C(c1ccccc1C)N(C)C.Cl` (centres unmarked) [Example 39, 2-(dimethylamino-o-tolylmethyl]-1-(2-o-tolylethyl)cyclohexanol, hydrochloride], in that order: 90% and 1400 nM.
For `CN(C)C(c1ccccc1Br)C1CCCCC1(O)CCCc1ccccc1.Cl` (centres unmarked) [Example 40, 2-[(2-bromophenyl)dimethylaminomethyl]-1-(3-phenylpropyl)cyclohexanol, hydrochloride], in that order: 82% and 1900 nM.
For `CN(C)C(c1ccc(F)cc1Cl)C1CCCCC1(O)CCc1ccccc1F.Cl` (centres unmarked) [Example 41, 2-[(2-chloro4-fluorophenyl)dimethylaminomethyl]-1-[2-(2-fluorophenyl)ethyl]cyclohexanol, hydrochloride], in that order: 94% and 1200 nM.
`CN(C)C(c1ccc(F)cc1Cl)C1CCCCC1(O)CCc1ccccc1Cl.Cl` (centres unmarked) [Example 42, 2-[(2-chloro4-fluorophenyl)dimethylaminomethyl]-1-[2-(2-chlorophenyl)ethyl]cyclohexanol, hydrochloride]: in data set [1], the “Percentage inhibition” value is 85% and the Ki is 2000 nM.
For `Cc1ccccc1CCC1(O)CCCCC1C(c1ccccc1F)N(C)C.Cl` (centres unmarked) [Example 43, 2-[dimethylamino-(2-fluorophenyl)methyl]-1-(2-o-tolylethyl)cyclohexanol, hydrochloride], in that order: 92% and 1400 nM.
For `CN(C)C(c1ccccc1F)C1CCCCC1(O)CCCc1ccccc1.Cl` (centres unmarked) [Example 44, 2-[dimethylamino-(2-fluorophenyl)methyl]-1-(3-phenylpropyl)cyclohexanol, hydrochloride], in that order: 91% and 1400 nM.
Turning to `Cc1ccccc1C(C1CCCCC1(O)CCCc1ccccc1)N(C)C.Cl` (centres unmarked) [Example 45, 2-(dimethylamino-o-tolylmethyl)1-(3-phenylpropyl)cyclohexanol, hydrochloride], in data set [1], the “Percentage inhibition” value stood at 91% and the Ki was 1800 nM.
For `CN(C)C(c1ccccc1C(F)(F)F)C1CCCCC1(O)CCc1ccccc1Cl.Cl` (centres unmarked) [Example 46, 1-[2-(2-chlorophenyl)ethyl]-2-[dimethylamino-(2-trifluoromethylphenyl)methyl]cyclohexanol, hydrochloride], in that order: 79% and 1900 nM.
For `CN(C)C(c1ccccc1C(F)(F)F)C1CCCCC1(O)CCc1ccccc1F.Cl` (centres unmarked) [Example 47, 2-[dimethylamino-(2-trifluoromethylphenyl)methyl]-1-[2-(2-fluorophenyl)ethyl]cyclohexanol, hydrochloride], in that order: 90% and 1400 nM.

The record behind these values is US6784175B2, “Use of substituted 1-amino-5-phenylpentane-3-ol and/or 1-amino-6-phenylhexane-3-ol compounds as medicaments” (Gruenenthal GmbH, priority 2000, dated 2004).
